The values that follow come from US10781184B2, “Substituted benzazinones as antibacterial compounds” (GlaxoSmithKline Intellectual Property Development Limited, priority 2015, dated 2020).

What all share (assay): Minimum Inhibitory Concentration Assay (broth microdilution, CLSI)
Assay type in all cases: cell-based
(In general: In broth dilution the organism is exposed to a series of concentrations in liquid medium.)

The subject of test [1] is K. pneumoniae 1161486. The protocol: (§1) Methods for dilution Antimicrobial Susceptibility TestS for Bacteria that Grow Aerobically; Approved Standard-Ninth Edition; M7-A9, Vol. 32 No. 2, Clinical and Laboratory Standards Institute, Wayne, Pa.; January 2012.
(§2) Performance Standards for Antimicrobial Susceptibility Testing; Twenty-Second Informational Supplement; M100-S22 Vol. 32 No. 3; Clinical and Laboratory Standards Institute, Wayne, Pa., January 2012.
(§3) Broth microdilution was performed in accordance with the CLSI recommended procedures for aerobic bacteria [CLSI, 2012].
(§4) Comparator compound stock solutions were prepared as recommended by CLSI [CLSI, 2012]. The stock solutions of novel GSK compounds were prepared at 512 mcg/mL by dissolving the compounds in dimethyl sulfoxide (DMSO) and diluting 1:10 with sterile water. The 512 mcg/mL stock was further serially diluted in the recommended broth media for the organisms being tested. Final DMSO concentration in test wells was less than 1%.
(§5) Microtitre plates were prepared using the Microlab STAR™ (Hamilton Co., Reno, Nev.) to add media (50 μL) and the Microlab AT Plus system (Hamilton Co., Reno, Nev.) to serially dilute the compounds (final concentration range 0.125 to 128 mcg/mL) and to add inoculum. A positive growth control well containing medium and the test isolate was included on each microtitre plate. Ten microliters of the test medium from the positive growth control well was plated to determine the purity of each test isolate. A microtitre mirror reader (Cooke Instruments, Ltd., England) was used to assist in determining the microdilution MIC endpoints. The MIC was determined as the lowest concentration of compound that inhibited visible growth of the organism.

In test [2] the test system is P. aeruginosa PA01. Particulars: Pseudomonas aeruginosa. The protocol: as §1, §2, §3, §4, §5
In test [3] the test system is E. coli 7623. As for the experimental part:
as §1, §2, §3, §4, §5

The mark [4] stands for this setting: Klebsiella pneumoniae, strain 1161486, broth microdilution, read-out: K. pneumoniae 1161486 MIC.
The mark [5] stands for this setting: strain PA01, broth microdilution, read-out: P. aeruginosa PA01 MIC.
Where [6] appears, read: Escherichia coli, strain 7623, broth microdilution, read-out: E. coli 7623 MIC.

≈ marks a conversion by molar mass, not a printed value. Structures can show the parent of a compound that is named as a salt. Where two headings read alike, the source gives them in different places. Bounds are passed on as bounds.

On to `CN(C)c1ccc(-c2cc3ncn(CC[C@](C)(C(=O)NO)S(C)(=O)=O)c(=O)c3cc2F)cn1` [Example 33, (2R)-4-{7-[6-(dimethylamino)pyridin-3-yl]-6-fluoro-4-oxo-3,4-dihydroquinazolin-3-yl}-N-hydroxy-2-methanesulfonyl-2-methylbutanamide], for which the results for the MIC in test [1] (setting [4]), in test [2] (setting [5]) and in test [3] (setting [6]) were 0.5 µg/mL (≈ 1.05 µM), 8 µg/mL (≈ 16.8 µM) and under 0.03 µg/mL, respectively.
On the same counts, the results for `C[C@@](CCn1cnc2cc(-c3ccc(CN4CCOCC4)cc3)ccc2c1=O)(C(=O)NO)S(C)(=O)=O` [Example 35, (2R)—N-hydroxy-2-methanesulfonyl-2-methyl-4-(7-{4-[(morpholin-4-yl)methyl]phenyl}-4-oxo-3,4-dihydroquinazolin-3-yl)butanamide] are 0.5 µg/mL (≈ 0.972 µM), 1 µg/mL (≈ 1.94 µM) and 0.125 µg/mL (≈ 0.243 µM).
For `COCCNCc1ccc(-c2ccc3c(=O)n(CC[C@](C)(C(=O)NO)S(C)(=O)=O)ccc3c2)c(F)c1` [Example 67, (2R)-4-[6-(2-fluoro-4-{[(2-methoxyethyl)amino]methyl}phenyl)-1-oxo-1,2-dihydroisoquinolin-2-yl]-N-hydroxy-2-methanesulfonyl-2-methylbutanamide] the same measures were 1 µg/mL (≈ 1.92 µM), 1 µg/mL (≈ 1.92 µM) and 0.125 µg/mL (≈ 0.241 µM).
On the same counts, the results for `C[C@@](CCn1ccc2cc(-c3ccc(C#N)cc3F)ccc2c1=O)(C(=O)NO)S(C)(=O)=O` [Example 59, (2R)-4-[6-(4-cyano-2-fluorophenyl)-1-oxo-1,2-dihydroisoquinolin-2-yl]-N-hydroxy-2-methanesulfonyl-2-methylbutanamide] are 0.125 µg/mL (≈ 0.273 µM), 0.5 µg/mL (≈ 1.09 µM) and 0.063 µg/mL (≈ 0.138 µM).
`C[C@@](CCn1ccc2cc(-c3ccc(CCO)cc3)ccc2c1=O)(C(=O)NO)S(C)(=O)=O` [Example 93, (2R)—N-hydroxy-4-{6-[4-(2-hydroxyethyl)phenyl]-1-oxo-1,2-dihydroisoquinolin-2-yl}-2-methanesulfonyl-2-methylbutanamide]: the values for the MIC in test [1] (setting [4]), in test [2] (setting [5]) and in test [3] (setting [6]) were 0.125 µg/mL (≈ 0.273 µM), 0.5 µg/mL (≈ 1.09 µM) and 0.063 µg/mL (≈ 0.137 µM), respectively.
For `C[C@@](CCn1ccc2cc(-c3ccc(CN4CCCC4=O)cc3)ccc2c1=O)(C(=O)NO)S(C)(=O)=O` [Example 81, (2R)—N-hydroxy-2-methanesulfonyl-2-methyl-4-(1-oxo-6-{4-[(2-oxopyrrolidin-1-yl)methyl]phenyl}-1,2-dihydroisoquinolin-2-yl)butanamide] the same measures were 0.5 µg/mL (≈ 0.977 µM), 1 µg/mL (≈ 1.95 µM) and 0.25 µg/mL (≈ 0.489 µM).
Consider `CN(C)c1ccc(-c2ccc3c(=O)n(CC[C@](C)(C(=O)NO)S(C)(=O)=O)cnc3c2)cc1` [Example 4, (R)-4-(7-(4-(dimethylamino)phenyl)-4-oxoquinazolin-3(4H)-yl)-N-hydroxy-2-methyl-2-(methylsulfonyl)butanamide Trifluoroacetic Acid Salt], for which the MIC in test [1] (Klebsiella pneumoniae, 1161486, read-out: K. pneumoniae 1161486 MIC (ug/mL)) is 0.25 µg/mL; in test [2] (PA01, read-out: P. aeruginosa PA01 MIC (ug/mL)), 8 µg/mL; in test [3] (Escherichia coli, 7623, read-out: E. coli 7623 MIC (ug/mL)), at most 0.03 µg/mL.
For `COCCN(C)Cc1ccc(-c2ccc3c(=O)n(CC[C@](C)(C(=O)NO)S(C)(=O)=O)cnc3c2)c(F)c1` [Example 36, (2R)-4-[7-(2-fluoro-4-{[(2-methoxyethyl)(methyl)amino]methyl}phenyl)-4-oxo-3,4-dihydroquinazolin-3-yl]-N-hydroxy-2-methanesulfonyl-2-methylbutanamide], the MIC in test [1] (setting [4]) was determined as 1 µg/mL (≈ 1.87 µM); in test [2] (setting [5]), 1 µg/mL (≈ 1.87 µM); in test [3] (setting [6]), 0.125 µg/mL (≈ 0.234 µM).
For the compound `C[C@@](CCn1cnc2cc(-c3cccc(F)c3F)ccc2c1=O)(C(=O)NO)S(C)(=O)=O` [Example 6, (R)-4-(7-(2,3-difluorophenyl)-4-oxoquinazolin-3(4H)-yl)-N-hydroxy-2-methyl-2-(methylsulfonyl)butanamide], the MIC in test [1] (setting [4]) is 0.125 µg/mL (≈ 0.277 µM); in test [2] (setting [5]) it was 0.5 µg/mL (≈ 1.11 µM); in test [3] (setting [6]), at most 0.032 µg/mL.
For `C[C@@](CCn1ccc2cc(-c3ccc(CNC4CC4)cc3F)ccc2c1=O)(C(=O)NO)S(C)(=O)=O` [Example 76, (2R)-4-(6-{4-[(cyclopropylamino)methyl]-2-fluorophenyl}-1-oxo-1,2-dihydroisoquinolin-2-yl)-N-hydroxy-2-methanesulfonyl-2-methylbutanamide] the same measures were 0.125 µg/mL (≈ 0.249 µM), 0.5 µg/mL (≈ 0.997 µM) and under 0.03 µg/mL.
On the same counts, the results for `COc1ccc(-c2ccc3c(=O)n(CC[C@](C)(C(=O)NO)S(C)(=O)=O)ccc3c2)cc1` [Example 53, (2R)—N-hydroxy-2-methanesulfonyl-4-[6-(4-methoxyphenyl)-1-oxo-1,2-dihydroisoquinolin-2-yl]-2-methylbutanamide] are 0.25 µg/mL (≈ 0.562 µM), 0.5 µg/mL (≈ 1.12 µM) and under 0.03 µg/mL.
On the same counts, the results for `COc1ccc(-c2ccc3c(=O)n(CC[C@](C)(C(=O)NO)S(C)(=O)=O)ccc3c2)c(F)c1` [Example 55, (2R)-4-[6-(2-fluoro-4-methoxyphenyl)-1-oxo-1,2-dihydroisoquinolin-2-yl]-N-hydroxy-2-methanesulfonyl-2-methylbutanamide] are 0.063 µg/mL (≈ 0.136 µM), 1 µg/mL (≈ 2.16 µM) and under 0.03 µg/mL.
`CCONCc1ccc(-c2ccc3c(=O)n(CC[C@](C)(C(=O)NO)S(C)(=O)=O)cnc3c2)c(F)c1` [Example 51, (2R)-4-(7-{4-[(ethoxyamino)methyl]-2-fluorophenyl}-4-oxo-3,4-dihydroquinazolin-3-yl)-N-hydroxy-2-methanesulfonyl-2-methylbutanamide]: the MIC in test [1] (setting [4]) was determined as 0.5 µg/mL (≈ 0.987 µM); in test [2] (setting [5]) it was 2 µg/mL (≈ 3.95 µM); in test [3] (setting [6]), 0.125 µg/mL (≈ 0.247 µM).
Regarding `CN(C)N(C)Cc1ccc(-c2ccc3c(=O)n(CC[C@](C)(C(=O)NO)S(C)(=O)=O)ccc3c2)cc1` [Example 77, (2R)—N-hydroxy-2-methanesulfonyl-2-methyl-4-(1-oxo-6-{4-[(1,2,2-trimethylhydrazin-1-yl)methyl]phenyl}-1,2-dihydroisoquinolin-2-yl)butanamide], the MIC in test [1] (setting [4]) came out at 0.25 µg/mL (≈ 0.499 µM); in test [2] (setting [5]), 2 µg/mL (≈ 4 µM); in test [3] (setting [6]), 0.125 µg/mL (≈ 0.25 µM).
With `CC(C)OCCNCc1ccc(-c2ccc3c(=O)n(CC[C@](C)(C(=O)NO)S(C)(=O)=O)ccc3c2)c(F)c1.Cl` [Example 73, (2R)-4-{6-[2-fluoro-4-({[2-(propan-2-yloxy)ethyl]amino}methyl)phenyl]-1-oxo-1,2-dihydroisoquinolin-2-yl}-N-hydroxy-2-methanesulfonyl-2-methylbutanamide], the MIC was determined as 0.5 µg/mL in test [1] (setting [4]), 2 µg/mL in test [2] (setting [5]) and 0.25 µg/mL in test [3] (setting [6]).
Take `Cc1ccc(-c2ccc3c(=O)n(CC[C@](C)(C(=O)NO)S(C)(=O)=O)nnc3c2)cc1` [Example 18, (2R)—N-hydroxy-2-methanesulfonyl-2-methyl-4-[7-(4-methylphenyl)-4-oxo-3,4-dihydro-1,2,3-benzotriazin-3-yl]butanamide]: the MIC in test [1] (setting [4]) was determined as 1 µg/mL (≈ 2.32 µM); in test [2] (setting [5]) it was 16 µg/mL (≈ 37.2 µM); in test [3] (setting [6]), 0.5 µg/mL (≈ 1.16 µM).
For `CON(C)Cc1ccc(-c2ccc3c(=O)n(CC[C@](C)(C(=O)NO)S(C)(=O)=O)cnc3c2)cc1` [Example 52, (2R)—N-hydroxy-2-methanesulfonyl-4-[7-(4-{[methoxy(methyl)amino]methyl}phenyl)-4-oxo-3,4-dihydroquinazolin-3-yl]-2-methylbutanamide] the same measures were 0.25 µg/mL (≈ 0.512 µM), 8 µg/mL (≈ 16.4 µM) and 0.063 µg/mL (≈ 0.129 µM).
For `C[C@@](CCn1cnc2cc(-c3ccc(CN4CCOCC4)cc3F)ccc2c1=O)(C(=O)NO)S(C)(=O)=O` [Example 37, (2R)-4-(7-{2-fluoro-4-[(morpholin-4-yl)methyl]phenyl}-4-oxo-3,4-dihydroquinazolin-3-yl)-N-hydroxy-2-methanesulfonyl-2-methylbutanamide] the same measures were 0.5 µg/mL (≈ 0.939 µM), 2 µg/mL (≈ 3.76 µM) and 0.063 µg/mL (≈ 0.118 µM).
Regarding `Cc1ccc(-c2cc3ncn(CC[C@](C)(C(=O)NO)S(C)(=O)=O)c(=O)c3cc2F)cc1` [Example 15, (2R)-4-[6-fluoro-7-(4-methylphenyl)-4-oxo-3,4-dihydroquinazolin-3-yl]-N-hydroxy-2-methanesulfonyl-2-methylbutanamide], the MIC was 0.063 µg/mL (≈ 0.141 µM) in test [1] (setting [4]), 0.5 µg/mL (≈ 1.12 µM) in test [2] (setting [5]) and under 0.03 µg/mL in test [3] (setting [6]).
For `CCOc1ccc(-c2ccc3c(=O)n(CC[C@](C)(C(=O)NO)S(C)(=O)=O)cc(F)c3c2)cn1` [Example 86, (2R)-4-[6-(6-ethoxypyridin-3-yl)-4-fluoro-1-oxo-1,2-dihydroisoquinolin-2-yl]-N-hydroxy-2-methanesulfonyl-2-methylbutanamide] the same measures were 0.25 µg/mL (≈ 0.524 µM), 16 µg/mL (≈ 33.5 µM) and under 0.03 µg/mL.
